Tests used:
Assay type in all cases: cell-based
[1] = target: T1, GPR34 (Homo sapiens, UniProt Q9UPC5); assay: DNA synthesis activity (tritium-labeled thymidine) of human GPR34-expressed CHO cells; details: serum-free medium, 16 hours
T1 construct: expressed in transfected cells
Protocol: The human GPR34-expressed CHO cells prepared by the procedure as described in REFERENCE EXAMPLE 1 were plated at a cell density of 20,000 cells/well on a 96-well plate charged with serum-free medium. The cells were allowed to stand for 4 hours, 0, 0.1, 0.3, 1 and 3 μM lysoPS was added thereto, respectively, followed by incubation for 16 hours. After 1 μCi/well of tritium-labeled thymidine (Amersham, TRK120) was added to achieve labeling for 4 hours, fixation was performed in 10% trichloroacetic acid. Solubilization in an aqueous sodium hydroxide solution was followed by neutralization in trichloroacetic acid to collect DNA with a cell harvester. The radioactivity on the filter was taken as DNA synthesis activity.

[2] = system: rat primary culture microglial cells (PMGC); assay: Changes of intracellular calcium levels in rat primary culture microglial cells (FLIPR); details: 0.2 to 10 μM lysoPS
Protocol: The reactivity of rat primary culture microglial cells (PMGC) with lysoPS was examined using FLIPR. PMGC was incubated in DMEM (Invitrogen) supplemented with 10% calf fetal serum (Invitrogen), unless otherwise indicated. PMGC, which was prepared from the brain of rat of one day old one day before assay, was plated on a Black walled 96-well plate (Costar) at 5.0×10^4 cells/well, and incubated overnight at 37° C. in a CO2 incubator adjusted to 5% CO2. After lysoPS was added to the PMGC, changes of intracellular calcium levels in this case were assayed using FLIPR (Molecular Device). To assay the changes of intracellular calcium levels on FLIPR, the following pretreatment was performed. First, an assay buffer was prepared to incorporate fluorescent dye Fluo-3AM (DOJIN) in the cells or wash the cells immediately before the FLIPR assay. To a solution of 20 ml of 1M HEPES (pH 7.4) (DOJIN) to 1000 ml of HBSS (Invitrogen) (hereinafter, HBSS/HEPES solution), 10 ml of the solution mixture obtained by dissolving 710 mg of Probenecid (Sigma) in 5 ml of 1N NaOH and further adding 5 ml of the HBSS/HEPES solution thereto was added. The resulting solution was used as an assay buffer. Next, 50 μg of Fluo-3AM was dissolved in 21 μl of DMSO (DOJIN) and an equal volume of 20% Pluronic acid (Molecular Device) was further mixed therewith. […]

[3] = system: human mast cell line LAD2 cells; assay: Leukotriene production of human mast cell line LAD2 cells (Leukotriene EIA)
Protocol: The human mast cell line LAD2 cells obtained from National Institute of Health in US were subjected to passive sensitization overnight using DNP IgE (Yamasa, 1 μg/ml), washed and plated on a 96-well plate in a final cell concentration of 100,000 cells/well in the reaction solution. LAD2 cells were stimulated by lysoPS and DNP-BSA and the plate was centrifuged 20 minutes after. The leukotriene in the supernatant of the reaction solution was assayed using Leukotriene EIA Kit (Amersham).

[4] = system: mouse bone marrow-derived mast cells; assay: MAPK activation: phosphorylation of ERK1/2 in mouse bone marrow-derived mast cells (BMMC); details: BMMC
Protocol: BMMC was established by collecting bone marrow fluid from the femur of male BALB/c mouse (Japan SLC), rinsing in RPMI1640 (Nikken Bio Medical Laboratory) and then incubating in a medium (RPMI1640, 50% WEHI-3 culture supernatant, 10% FBS (GIBCO), penicillin/streptomycin (BIOWHITTAKER), Non-Essential amino acids (GIBCO)) for 4 weeks. The cells were incubated in a CO2 incubator immediately before assay. Pertussis toxin (hereinafter PTX) was added to the cells in a final concentration of 0.1 μg/mL 4 hours before assay. BMMC was washed in ice-chilled assay buffer (Tyrode Buffer, 0.01% fatty acid free-BSA (SIGMA), 1 mM CaCl2, 1 mM MgCl2), and suspended in 2×10^6 cells/ml. The suspension was dispensed in a 1.5 mL tube followed by preincubation for 15 minutes at 37° C. The lysoPS solution and A23187 solution (Wako Pure Chemicals) as a positive control were added in equimolar amounts. After incubation at 37° C., the reaction was terminated by quenching. The cells were precipitated by centrifugation and the assay buffer was aspirated. After washing in PBS, 1×SDS sample buffer/DTT was added to the cells to lyse the cells. After ultrasonication for 15 seconds, the sample was heated at 95° C. for 5 minutes followed by quenching.
Detection by SDS-PAGE and western blotting were performed as follows. After separation using 10% Bis-Tris gel (Invitrogen), the gel was transferred to Immuno-Blot PVDF Membrane (BIO-RAD). The membrane was blocked with Block Ace (Dai-Nippon Pharmaceutical) and incubated at 4° C. overnight with a primary antibody (Phospho-p42/p44 MAP Kinase (Thr202/Thr204) Antibody (CST) or p42/p44 MAP Kinase Antibody (CST)) and further incubated at room temperature for an hour using a secondary antibody (Anti-rabbit IgG (CST)). The membrane after the antibody reaction was visualized by chemiluminescence using ECL PLUS (Amersham Biosciences). Detection and image analysis were performed using LAS1000 (FUJI FILM).

T1 sequence (Q9UPC5 whole entry): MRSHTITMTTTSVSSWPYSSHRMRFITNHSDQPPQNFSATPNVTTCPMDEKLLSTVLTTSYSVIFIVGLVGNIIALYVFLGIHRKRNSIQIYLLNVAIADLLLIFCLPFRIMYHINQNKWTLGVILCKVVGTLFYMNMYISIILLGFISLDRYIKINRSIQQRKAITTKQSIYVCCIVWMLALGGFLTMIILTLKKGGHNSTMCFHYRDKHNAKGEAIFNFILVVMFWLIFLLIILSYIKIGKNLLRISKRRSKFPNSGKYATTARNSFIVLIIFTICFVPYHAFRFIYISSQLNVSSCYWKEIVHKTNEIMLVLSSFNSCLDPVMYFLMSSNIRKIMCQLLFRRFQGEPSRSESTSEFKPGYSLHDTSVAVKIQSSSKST

In the case of lysophosphatidylserine [lysoPS], the “DNA synthesis activity, increase” value ([1]; 0.1 μM lysoPS) is reported as 1.1 times, the “DNA synthesis activity, increase” value ([1]; 0.3 μM lysoPS) is reported as 1.2 times and the “DNA synthesis activity, increase” value ([1]; 1 μM lysoPS) is reported as 2.0 times. For the same substance, the “DNA synthesis activity, increase” value ([1]; 3 μM lysoPS) was 3.2 times, the “increase in intracellular calcium levels” value [2] was “responded concentration-dependently” and the leukotriene production ([3]; 300 ng/ml DNP-BSA with 0.1 μM lysoPS added simultaneously) was 382 pg/mL. It also gave a leukotriene production ([3]; 300 ng/ml DNP-BSA with 0.3 μM lysoPS added simultaneously) of 529 pg/mL, a leukotriene production ([3]; 300 ng/ml DNP-BSA with 1 μM lysoPS added simultaneously) of 638 pg/mL and a leukotriene production ([3]; 300 ng/ml DNP-BSA with 3 μM lysoPS added simultaneously) of 750 pg/mL. The leukotriene production ([3]; 300 ng/ml DNP-BSA with 10 μM lysoPS added simultaneously) was 792 pg/mL, the “phosphorylation of ERK1/2 30 minutes after the stimulation” value [4] was “the phosphorylation was observed” and the “time of maximum response of ERK1/2 phosphorylation after the stimulation” value [4] was “about 2 minutes”.

— patent US7951548B2, “IL-13 production inhibitor” (Takeda Pharmaceutical Company Limited, priority 2005, dated 2011)
